# Results from the NIST ThermoML archive (doi:10.1016/j.jct.2012.09.023).
# ± gives the expanded uncertainty stated by the source.
# Settings: 303.15 K; 101.33 kPa; Liquid; Pycnometric method
row,SMILES,mass density [kg/m3]
1,"CC(=O)N(C)C.O=C(O)C(F)(F)F [N,N-dimethylacetamide trifluoroacetate]",1227.9 ± 2.1
2,"CN(C)C=O.O=C(O)C(F)(F)F [N,N-dimethylformamide trifluoroacetate]",1246 ± 2.2
3,CN1CCCC1=O.O=C(O)C(F)(F)F [N-methylpyrrolidone trifluoroacetate],1232.3 ± 2.1

# Same assay, conditions: 313.15 K; 101.33 kPa; Liquid; Pycnometric method
row,SMILES,mass density [kg/m3]
1,"CC(=O)N(C)C.O=C(O)C(F)(F)F [N,N-dimethylacetamide trifluoroacetate]",1218 ± 2.1
2,"CN(C)C=O.O=C(O)C(F)(F)F [N,N-dimethylformamide trifluoroacetate]",1232.9 ± 2.2
3,CN1CCCC1=O.O=C(O)C(F)(F)F [N-methylpyrrolidone trifluoroacetate],1226.1 ± 2.1

# Same assay, conditions: 323.15 K; 101.33 kPa; Liquid; Pycnometric method
row,SMILES,mass density [kg/m3]
1,"CC(=O)N(C)C.O=C(O)C(F)(F)F [N,N-dimethylacetamide trifluoroacetate]",1208.2 ± 2.1
2,"CN(C)C=O.O=C(O)C(F)(F)F [N,N-dimethylformamide trifluoroacetate]",1219.9 ± 2.2
3,CN1CCCC1=O.O=C(O)C(F)(F)F [N-methylpyrrolidone trifluoroacetate],1219.9 ± 2.1
